In ChEMBL document CHEMBL1201862, “PubChem BioAssay data set” (2004):
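Cells were grown in 96-well plates and exposed to each compound for 48 hours at five concentrations; endpoints were interpolated linearly between bracketing concentrations, or set to the highest concentration if not reached. Here, GI50 denotes the concentration required for 50% inhibition of growth.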 Activity calls are given as the source filed them. Cut-off read from the data, not from the text of the source: active = GI50 up to about 1.1 µM and inactive = higher. Where a SMILES comes first, the peptide text is derived from it. The star is where a group is joined. Boc = CC(C)(C)OC(=O)*

Legend:
Assay in all cases: NCI anticancer screen, dose series, 48 h
A549 = system: A549
CAKI-1 = system: CAKI-1
DU-145 = system: DU-145
HCC 2998 = system: HCC 2998
KM12 = system: KM12
LOX IMVI = system: LOX IMVI
M14 = system: M14
MCF7 = system: MCF7
NCI-H226 = system: NCI-H226
NCI-H23 = system: NCI-H23
PC-3 = system: PC-3
SF-268 = system: SF-268
SF-539 = system: SF-539
SNB-19 = system: SNB-19
SW-620 = system: SW-620
T47D = system: T47D
TK-10 = system: TK-10
UACC-62 = system: UACC-62
UO-31 = system: UO-31
SK-MEL-2 = system: SK-MEL-2

| Structure (SMILES) | GI50 (A549) | GI50 (CAKI-1) | GI50 (DU-145) | GI50 (HCC 2998) | GI50 (KM12) | GI50 (LOX IMVI) | GI50 (M14) | GI50 (MCF7) | GI50 (NCI-H226) | GI50 (NCI-H23) | GI50 (PC-3) | GI50 (SF-268) | GI50 (SF-539) | GI50 (SNB-19) | GI50 (SW-620) | GI50 (T47D) | GI50 (TK-10) | GI50 (UACC-62) | GI50 (UO-31) | GI50 (SK-MEL-2) |
| --- | --- | --- | --- | --- | --- | --- | --- | --- | --- | --- | --- | --- | --- | --- | --- | --- | --- | --- | --- | --- |
| CN(C)c1c(Cl)c(=O)oc2c1ccc1nc(-c3ccccc3)sc12 | > 100 µM (inactive) | > 100 µM (inactive) | > 100 µM (inactive) | > 100 µM (inactive) | > 100 µM (inactive) | > 100 µM (inactive) | > 100 µM (inactive) | 57.7 µM (inactive) | > 100 µM (inactive) | > 100 µM (inactive) | > 100 µM (inactive) | > 100 µM (inactive) | > 100 µM (inactive) | > 100 µM (inactive) | > 100 µM (inactive) | > 100 µM (inactive) | > 100 µM (inactive) | 64.6 µM (inactive) | > 100 µM (inactive) |  |
| COc1ccc(/C=C2\N=C(c3ccccc3)OC2=O)cc1OC(C)=O | > 100 µM (inactive) |  | > 100 µM (inactive) | 93.5 µM (inactive) |  | 51.3 µM (inactive) | 99.8 µM (inactive) | 53.2 µM (inactive) | > 100 µM (inactive) | 65.6 µM (inactive) | 31.1 µM (inactive) | 27.3 µM (inactive) | > 100 µM (inactive) | > 100 µM (inactive) | 51.4 µM (inactive) | > 100 µM (inactive) | > 100 µM (inactive) | > 100 µM (inactive) | 58.7 µM (inactive) | 27.5 µM (inactive) |
| O=C(Nc1sccc1S(=O)(=O)c1ccc(Cl)cc1)c1ccccc1 | > 100 µM (inactive) | > 100 µM (inactive) | > 100 µM (inactive) |  | > 100 µM (inactive) | > 100 µM (inactive) | > 100 µM (inactive) | > 100 µM (inactive) | > 100 µM (inactive) | > 100 µM (inactive) | > 100 µM (inactive) | > 100 µM (inactive) | 60.1 µM (inactive) | > 100 µM (inactive) | > 100 µM (inactive) | > 100 µM (inactive) | 40.1 µM (inactive) | > 100 µM (inactive) | > 100 µM (inactive) | > 100 µM (inactive) |
| COc1cc(O)c2c(=O)c(O)c(-c3ccc(O)c(O)c3)oc2c1 [RHAMNETIN] | 15 µM (inactive) | 1.09 µM (active) | 4.13 µM (inactive) | 14 µM (inactive) |  | 11.7 µM (inactive) | 5.15 µM (inactive) | 17.8 µM (inactive) |  |  | 19.7 µM (inactive) | 7.26 µM (inactive) |  | 12.2 µM (inactive) | 10.8 µM (inactive) | 19.6 µM (inactive) | 21.4 µM (inactive) | 7.91 µM (inactive) | 6.05 µM (inactive) |  |
| COc1ccc(/C=C(/C#N)C(N)=O)c(OC)c1 | > 100 µM (inactive) | > 100 µM (inactive) | > 100 µM (inactive) |  | > 100 µM (inactive) | > 100 µM (inactive) | 41.3 µM (inactive) | 44 µM (inactive) | > 100 µM (inactive) | > 100 µM (inactive) | 97.3 µM (inactive) | > 100 µM (inactive) | > 100 µM (inactive) | > 100 µM (inactive) | 79.3 µM (inactive) | > 100 µM (inactive) | > 100 µM (inactive) | 42.6 µM (inactive) | 2.15 µM (inactive) | 50.4 µM (inactive) |
| CCCCCCCCCCCCn1c(=O)cc(NCCCC)c2cc3c(NCCCC)cc(=O)n(CCCCCCCCCCCC)c3nc21 | > 100 µM (inactive) | > 100 µM (inactive) | > 100 µM (inactive) | > 100 µM (inactive) | > 100 µM (inactive) |  | > 100 µM (inactive) | > 100 µM (inactive) | > 100 µM (inactive) | > 100 µM (inactive) | > 100 µM (inactive) | 99.1 µM (inactive) |  | > 100 µM (inactive) |  | > 100 µM (inactive) | > 100 µM (inactive) | > 100 µM (inactive) | > 100 µM (inactive) | > 100 µM (inactive) |
| COc1cc(OC)c2c(=O)c(O)c(-c3ccc(OC)c(OC)c3)oc2c1 | 5.85 µM (inactive) | 4.1 µM (inactive) | 8.28 µM (inactive) | 4.26 µM (inactive) | 7.29 µM (inactive) | 3.78 µM (inactive) | 9.4 µM (inactive) | 4.02 µM (inactive) | 9.4 µM (inactive) | 11.1 µM (inactive) | 3.92 µM (inactive) | 4.11 µM (inactive) | 16.1 µM (inactive) | 10.3 µM (inactive) | 7.8 µM (inactive) | 4.97 µM (inactive) | 11.2 µM (inactive) | 3.43 µM (inactive) | 8.85 µM (inactive) |  |
| CN(C(=O)C1=CCC2(CC1)OCCO2)c1ccccc1I | > 100 µM (inactive) | > 100 µM (inactive) | > 100 µM (inactive) | > 100 µM (inactive) | > 100 µM (inactive) | > 100 µM (inactive) | > 100 µM (inactive) | > 100 µM (inactive) | > 100 µM (inactive) | > 100 µM (inactive) | > 100 µM (inactive) |  |  | > 100 µM (inactive) | > 100 µM (inactive) | > 100 µM (inactive) | > 100 µM (inactive) | > 100 µM (inactive) | > 100 µM (inactive) | > 100 µM (inactive) |
| O=C(/C(=C(/Br)I)c1ccccc1)c1ccccc1 | 26.9 µM (inactive) | 38.5 µM (inactive) | 14.3 µM (inactive) | 13.6 µM (inactive) | 19.5 µM (inactive) | 13.9 µM (inactive) | 16.3 µM (inactive) | 30.9 µM (inactive) | 19.3 µM (inactive) | 50.4 µM (inactive) | 28.6 µM (inactive) | 22.1 µM (inactive) | 17.2 µM (inactive) | 38.2 µM (inactive) |  | 22.6 µM (inactive) | 27.2 µM (inactive) | 18.4 µM (inactive) | 22.7 µM (inactive) |  |
| Cc1ccc(S(=O)(=O)NCCCSCCO)cc1 | 10.5 µM (inactive) |  | > 100 µM (inactive) | > 100 µM (inactive) | 20.6 µM (inactive) | 29 µM (inactive) | 28.6 µM (inactive) | 32.8 µM (inactive) | 27.9 µM (inactive) | 25.6 µM (inactive) | 30 µM (inactive) | 10 µM (inactive) |  | 9.04 µM (inactive) | 89.7 µM (inactive) | 21.7 µM (inactive) | 90.8 µM (inactive) |  | > 100 µM (inactive) |  |
| Oc1ccc(-c2nc(-c3cccnc3)c(-c3ccc(Cl)cc3)[nH]2)cc1 | 15.3 µM (inactive) | 17.9 µM (inactive) | 14.3 µM (inactive) | 18.8 µM (inactive) | 11.9 µM (inactive) | 6.89 µM (inactive) | 13.1 µM (inactive) | 11.3 µM (inactive) | 18.8 µM (inactive) | 13 µM (inactive) | 5.58 µM (inactive) | 14.6 µM (inactive) |  | 16.5 µM (inactive) | 14.6 µM (inactive) | 11.7 µM (inactive) | 13.3 µM (inactive) | 12.9 µM (inactive) | 10.8 µM (inactive) | 18.2 µM (inactive) |
| COc1ccc2c(c1)/C(=C(\C(Cl)=C(\Cl)N1CCCCC1)[N+](=O)[O-])N2 | > 100 µM (inactive) | > 100 µM (inactive) | > 100 µM (inactive) | > 100 µM (inactive) | > 100 µM (inactive) | > 100 µM (inactive) | > 100 µM (inactive) | > 100 µM (inactive) | 29.6 µM (inactive) | > 100 µM (inactive) | > 100 µM (inactive) | > 100 µM (inactive) |  | > 100 µM (inactive) | 71 µM (inactive) | > 100 µM (inactive) | > 100 µM (inactive) | > 100 µM (inactive) | > 100 µM (inactive) |  |
| COC(=O)C(Cc1c[nH]c2ccccc12)NC(=O)C(Cc1c[nH]c2ccccc12)NC(=O)C(Cc1c[nH]c2ccccc12)NC(=O)C(Cc1c[nH]c2ccccc12)NC(=O)C(Cc1c[nH]c2ccccc12)NC(=O)C(Cc1c[nH]c2ccccc12)NC(=O)C(Cc1c[nH]c2ccccc12)NC(=O)OC(C)(C)C (stereo unspecified) (Boc-WWWWWWW-OMe; configuration not given here) | 31.9 µM (inactive) | > 100 µM (inactive) | 64 µM (inactive) | > 100 µM (inactive) |  | 84.9 µM (inactive) | 21.7 µM (inactive) | 59.4 µM (inactive) | 40.9 µM (inactive) | 64.1 µM (inactive) | > 100 µM (inactive) | > 100 µM (inactive) |  | 47.8 µM (inactive) | > 100 µM (inactive) | > 100 µM (inactive) | 43.6 µM (inactive) | 51.5 µM (inactive) | 44.9 µM (inactive) | 17.1 µM (inactive) |
| COc1cc2oc(-c3ccc(O)cc3O)c(CC=C(C)C)c(=O)c2c(O)c1/C=C/C(C)C [ARTOCARPIN] | 2.75 µM (inactive) |  | 4.26 µM (inactive) | 2.46 µM (inactive) | 3.1 µM (inactive) | 1.8 µM (inactive) | 1.77 µM (inactive) | 2.88 µM (inactive) | 3.58 µM (inactive) | 3.24 µM (inactive) | 2.79 µM (inactive) | 2.25 µM (inactive) | 4.91 µM (inactive) | 2.72 µM (inactive) | 2.33 µM (inactive) | 7.1 µM (inactive) | 4.85 µM (inactive) | 3.83 µM (inactive) | 2.95 µM (inactive) | 6.41 µM (inactive) |
| N=C(N)c1ccc(C(NC(=O)CNS(=O)(=O)c2ccc3ccccc3c2)P(=O)(Oc2ccccc2)Oc2ccccc2)cc1 (stereo unspecified) | 54.1 µM (inactive) | 67.5 µM (inactive) | > 100 µM (inactive) | > 100 µM (inactive) | 47.4 µM (inactive) | 28.1 µM (inactive) | 45.2 µM (inactive) | 54 µM (inactive) | 17.7 µM (inactive) | > 100 µM (inactive) | 37.8 µM (inactive) | 29.8 µM (inactive) | 14.1 µM (inactive) | 47 µM (inactive) | 53.2 µM (inactive) | 65.3 µM (inactive) |  | 44.1 µM (inactive) | 40.3 µM (inactive) | > 100 µM (inactive) |
